# Data from the supplement of paper PMC9663587.
# How the values were obtained:
# [1] = compound: CC(=O)c1c(C)c2cnc(Nc3ccc(N4CCN(CCOCCOCCOCCNC(=O)COc5cccc6c5C(=O)N(C5CCC(=O)NC5=O)C6=O)CC4)cn3)nc2n(C2CCCC2)c1=O [BSJ-03-123]; test: GR value, 72 h; higher = faster growth (1 = untreated, <0 = killing);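 note: breast cancer and non-malignant breast epithelial lines, nine half-log doses, viable cells counted by Hoechst and LIVE/DEAD dye imaging versus time-zero plates and DMSO controls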
# [2] = compound: T1, CN1CC[C@H](c2c(O)cc(O)c3c(=O)cc(-c4ccccc4Cl)oc23)[C@H](O)C1 [Flavopiridol]; test: as above
# [3] = compound: CN(C)C/C=C/C(=O)Nc1ccc(C(=O)Nc2cccc(Nc3ncc(Cl)c(-c4c[nH]c5ccccc45)n3)c2)cc1 [THZ1]; test: as above
# [4] = compound: CN(C)C(=O)c1cc2cnc(Nc3ccc(N4CCNCC4)cn3)nc2n1C1CCCC1 [LEE011/Ribociclib]; test: as above
# [5] = compound: CCOc1cc2ncc(C#N)c(Nc3ccc(OCc4ccccn4)c(Cl)c3)c2cc1NC(=O)/C=C/CN(C)C [Neratinib/HKI272]; test: as above
# [6] = compound: CC(=O)c1c(C)c2cnc(Nc3ccc(N4CCNCC4)cn3)nc2n(C2CCCC2)c1=O; test: as above
# [7] = compound: CCc1cnn2c(NCc3ccc[n+]([O-])c3)cc(N3CCCC[C@H]3CCO)nc12; test: as above
# [8] = compound: C=CC(=O)Nc1ccc(C(=O)Nc2[nH]nc3c2CN(C(=O)N[C@H](CN(C)C)c2ccccc2)C3(C)C)cc1 [YKL-5-124]; test: as above
# [9] = compound: CN(C)C/C=C/C(=O)Nc1ccc(C(=O)N2CCC[C@@H](Nc3ncc(Cl)c(-c4c[nH]c5ccccc45)n3)C2)cc1 [THZ531]; test: as above
# [10] = compound: CCN1CCN(Cc2ccc(Nc3ncc(F)c(-c4cc(F)c5nc(C)n(C(C)C)c5c4)n3)nc2)CC1; test: as above
# [11] = compound: T1, Flavopiridol; test: increase in dead-cell fraction, 72 h; higher = more death;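 note: breast cancer cell lines in 384-well plates, stained with Hoechst plus LIVE/DEAD far red dye and imaged, cells above an LDR intensity threshold counted dead, Hoechst-negative corpses included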
# [12] = compound: CCN1CCN(Cc2ccc(Nc3ncc(F)c(-c4cc(F)c5nc(C)n(C(C)C)c5c4)n3)nc2)CC1; test: as above
cell line,measurement,setting,value
184A1,GR value,[1]; 0.001 µM,0.716 GR
same,GR value,[1]; 0.003162 µM,0.636 GR
same,GR value,[1]; 0.01 µM,0.521 GR
same,GR value,[1]; 0.03162 µM,0.296 GR
same,GR value,[1]; 0.1 µM,0.243 GR
same,GR value,[1]; 0.3162 µM,0.145 GR
same,GR value,[1]; 1 µM,0.114 GR
same,GR value,[1]; 3.162 µM,0.101 GR
same,GR value,[1]; 10 µM,-0.139 GR
same,GR value,[2]; 0.0001 µM,1.04 GR
same,GR value,[2]; 0.0003162 µM,1 GR
same,GR value,[2]; 0.001 µM,1.01 GR
same,GR value,[2]; 0.003162 µM,0.931 GR
same,GR value,[2]; 0.01 µM,0.838 GR
same,GR value,[2]; 0.03162 µM,0.614 GR
same,GR value,[2]; 0.1 µM,0.0558 GR
same,GR value,[2]; 0.3162 µM,-0.172 GR
same,GR value,[2]; 1 µM,-0.307 GR
same,GR value,[3]; 0.0001 µM,1.02 GR
same,GR value,[3]; 0.0003162 µM,1 GR
same,GR value,[3]; 0.001 µM,1.01 GR
same,GR value,[3]; 0.003162 µM,0.822 GR
same,GR value,[3]; 0.01 µM,0.39 GR
same,GR value,[3]; 0.03162 µM,-0.094 GR
same,GR value,[3]; 0.1 µM,-0.2 GR
same,GR value,[3]; 0.3162 µM,-0.209 GR
same,GR value,[4]; 0.001 µM,0.846 GR
same,GR value,[4]; 0.003162 µM,0.792 GR
same,GR value,[4]; 0.01 µM,0.664 GR
same,GR value,[4]; 0.03162 µM,0.633 GR
same,GR value,[4]; 0.1 µM,0.549 GR
same,GR value,[4]; 0.3162 µM,0.552 GR
same,GR value,[4]; 1 µM,0.446 GR
same,GR value,[4]; 3.162 µM,0.306 GR
same,GR value,[4]; 10 µM,0.11 GR
same,GR value,[5]; 0.0003162 µM,0.998 GR
same,GR value,[5]; 0.001 µM,1 GR
same,GR value,[5]; 0.003162 µM,1.02 GR
same,GR value,[5]; 0.01 µM,0.853 GR
same,GR value,[5]; 0.03162 µM,0.468 GR
same,GR value,[5]; 0.1 µM,0.287 GR
same,GR value,[5]; 0.3162 µM,0.219 GR
same,GR value,[5]; 1 µM,0.198 GR
same,GR value,[5]; 3.162 µM,0.166 GR
same,GR value,[6]; 0.0003162 µM,1.04 GR
same,GR value,[6]; 0.001 µM,0.968 GR
same,GR value,[6]; 0.003162 µM,0.963 GR
same,GR value,[6]; 0.01 µM,0.848 GR
same,GR value,[6]; 0.03162 µM,0.664 GR
same,GR value,[6]; 0.1 µM,0.465 GR
same,GR value,[6]; 0.3162 µM,0.324 GR
same,GR value,[6]; 1 µM,0.191 GR
same,GR value,[6]; 3.162 µM,0.128 GR
same,GR value,[7]; 0.0001 µM,1.04 GR
same,GR value,[7]; 0.0003162 µM,1.05 GR
same,GR value,[7]; 0.001 µM,1.04 GR
same,GR value,[7]; 0.003162 µM,0.865 GR
same,GR value,[7]; 0.01 µM,0.401 GR
same,GR value,[7]; 0.03162 µM,-0.275 GR
same,GR value,[7]; 0.1 µM,-0.222 GR
same,GR value,[7]; 0.3162 µM,-0.306 GR
same,GR value,[7]; 1 µM,-0.346 GR
same,GR value,[8]; 0.001 µM,0.287 GR
same,GR value,[8]; 0.003162 µM,0.204 GR
same,GR value,[8]; 0.01 µM,0.116 GR
same,GR value,[8]; 0.03162 µM,0.07 GR
same,GR value,[8]; 0.1 µM,0.0439 GR
same,GR value,[8]; 0.3162 µM,0.0314 GR
same,GR value,[8]; 1 µM,0.0278 GR
same,GR value,[8]; 3.162 µM,-0.0126 GR
same,GR value,[8]; 10 µM,-0.0798 GR
same,GR value,[9]; 0.0001 µM,1.01 GR
same,GR value,[9]; 0.0003162 µM,0.964 GR
same,GR value,[9]; 0.001 µM,0.898 GR
same,GR value,[9]; 0.003162 µM,0.954 GR
same,GR value,[9]; 0.01 µM,0.931 GR
same,GR value,[9]; 0.03162 µM,0.968 GR
same,GR value,[9]; 0.1 µM,0.814 GR
same,GR value,[9]; 0.3162 µM,0.438 GR
same,GR value,[9]; 1 µM,-0.377 GR
same,GR value,[10]; 0.001 µM,0.939 GR
same,GR value,[10]; 0.003162 µM,0.858 GR
same,GR value,[10]; 0.01 µM,0.69 GR
same,GR value,[10]; 0.03162 µM,0.413 GR
same,GR value,[10]; 0.1 µM,0.267 GR
same,GR value,[10]; 0.3162 µM,0.13 GR
same,GR value,[10]; 1 µM,0.0708 GR
same,GR value,[10]; 3.162 µM,0.0774 GR
same,GR value,[10]; 10 µM,-0.105 GR
same,increase in dead-cell fraction,[11]; 0.0001 µM,-0.0061
same,increase in dead-cell fraction,[11]; 0.0003162 µM,0.0046
same,increase in dead-cell fraction,[11]; 0.001 µM,-0.0038
same,increase in dead-cell fraction,[11]; 0.003162 µM,-0.0001
same,increase in dead-cell fraction,[11]; 0.01 µM,0.0054
same,increase in dead-cell fraction,[11]; 0.03162 µM,0.0223
same,increase in dead-cell fraction,[11]; 0.1 µM,0.0902
same,increase in dead-cell fraction,[11]; 0.3162 µM,0.231
same,increase in dead-cell fraction,[11]; 1 µM,0.0866
same,increase in dead-cell fraction,[12]; 0.001 µM,0.0016
same,increase in dead-cell fraction,[12]; 0.003162 µM,0.0047
same,increase in dead-cell fraction,[12]; 0.01 µM,0.0067
same,increase in dead-cell fraction,[12]; 0.03162 µM,0.0185
same,increase in dead-cell fraction,[12]; 0.1 µM,0.0336
same,increase in dead-cell fraction,[12]; 0.3162 µM,0.0578
same,increase in dead-cell fraction,[12]; 1 µM,0.056
same,increase in dead-cell fraction,[12]; 3.162 µM,0.0434
same,increase in dead-cell fraction,[12]; 10 µM,0.229
